# Entries after “also recorded” stand apart in the source; their conditions may differ.
# How the values were obtained:
# [1] = test system: rats with spinal nerve ligation (SpNL); assay: von Frey mechanical allodynia test, tolerance from chronic systemic morphine (s.c. morphine pellets); conditions: for reversal of spinal morphine antiallodynic tolerance induced by chronic systemic morphine, single agent: CSD or S-CSD 10 μg, PP2 or PP3 300 ng, i.t. on day 8, 45 min before i.t. morphine; for prevention of antiallodynic tolerance to chronic systemic morphine, male rats / prevention of antiallodynic tolerance to chronic systemic morphine, female rats: i.t. 45 min before s.c. morphine pellet implantation on days 1, 3, 5; for prevention of antiallodynic tolerance to chronic systemic morphine, male rats: 10 μg; for prevention of antiallodynic tolerance to chronic systemic morphine, female rats: dose 6 μg or 10 μg
# [2] = test system: rats with spinal nerve ligation (SpNL); assay: von Frey mechanical allodynia test, spinal morphine tolerance from chronic i.t. morphine; conditions: for reversal of spinal morphine antiallodynic tolerance by the single agent: CSD 10 μg or PP2 300 ng i.t. 45 min before i.t. morphine on day 8 or 9 of daily i.t. 15 μg morphine; for reversal of spinal morphine antiallodynic tolerance by the single agent / duration of reversal of morphine tolerance by the single agent: FIGS. 3A, 3B; for duration of reversal of morphine tolerance by the single agent: CSD 10 μg or PP2 300 ng i.t.
# rats [3] = assay: tail flick latency test, spinal morphine tolerance from chronic i.t. morphine; conditions: 9 days of daily 15 μg i.t. morphine
# rats [4] = assay: tail flick latency test, tolerance from chronic systemic morphine (s.c. morphine pellets); conditions: i.t. CSD with s.c. morphine pellets; FIG. 4B
compound,measurement,setting,value
"CC(C)(C)n1nc(-c2ccc(Cl)cc2)c2c(N)ncnc21 [PP2, 3-(4-chlorophenyl) 1-(1,1-dimethylethyl)-1H-pyrazolo[3,4-d]pyrimidin-4-amine]",duration of tolerance-reversing effect,"[1]; CSD 10 μg or PP2 300 ng i.t. on day 8, chronic systemic morphine, FIGS. 6A, 6B",less than 24 hours
same,"reversal of spinal morphine antiallodynic tolerance induced by chronic systemic morphine, single agent","[1]; FIGS. 6A, 6B",essentially fully restored i.t. morphine antiallodynic action; also recorded: fully restored i.t. morphine antiallodynic effects
same,reversal of spinal morphine antiallodynic tolerance by the single agent,[2],attenuated spinal opioid antiallodynic tolerance
same,duration of reversal of morphine tolerance by the single agent,[2]; chronic i.t. morphine,lasted for multiple days
same,share of opioid naive i.t. morphine responsiveness restored,"[2]; PP2 300 ng i.t. 45 min before i.t. morphine, chronic i.t. morphine, FIG. 3B",approximately 60%
"Nc1ncnc2c1cnn2-c1ccccc1 [PP3, 1-Phenyl-1H-pyrazolo[3,4-d]pyrimidin-4-amine]","reversal of spinal morphine antiallodynic tolerance induced by chronic systemic morphine, single agent","[1]; FIGS. 6A, 6B",failed to alter antiallodynic action of i.t. morphine; also recorded: devoid of any effect
"CN1CC[C@]23c4c5ccc(O)c4O[C@H]2[C@@H](O)C=C[C@H]3[C@H]1C5 [morphine, (5a,6a)-7,8-didehydro-4,5-epoxy-17-methylmorphinan-3,6-diol]","analgesic effect of i.t. morphine after chronic daily i.t. morphine (tolerance), tail flick",rats [3],lost most of its analgesic effect
same,"i.t. morphine antiallodynia ED50, opioid naive rats","[1]; before pelleting, FIG. 5",5.5 µg
same,fold increase of i.t. morphine ED50 in tolerant vs. opioid naive rats,"[1]; chronic systemic morphine, FIG. 5",3.6 fold
same,reduction of i.t. morphine antiallodynic effects by chronic systemic morphine,"[1]; day 7 of morphine pelleting, before PP2, FIG. 6B",approximately 80%
same,"i.t. morphine antiallodynia ED50, chronic systemic morphine-treated (tolerant) rats","[1]; s.c. morphine pellets, FIG. 5",19.7 µg
same,"i.t. morphine antiallodynia ED50, morphine naive rats",[2]; FIG. 1B,3.9 µg
same,"i.t. morphine antiallodynia ED50, morphine tolerant rats","[2]; after chronic daily i.t. morphine, FIG. 1B",13.1 µg
same,times more morphine required in tolerant than in naive rats for comparable antiallodynia,"[2]; chronic daily i.t. morphine, FIG. 1B",3.4 times
same,antiallodynic responsiveness to i.t. morphine after chronic daily i.t. morphine (tolerance),"[2]; i.t. morphine 15 μg daily, 6 to 9 days, no CSD/PP2",complete loss of antiallodynic responsiveness; also recorded: lost most of its antiallodynic effectiveness
H-Arg-Gln-Ile-Lys-Ile-Trp-Phe-Gln-Asn-Arg-Arg-Met-Lys-Trp-Lys-Lys-Asp-Gly-Ile-Trp-Lys-Ala-Ser-Phe-Thr-Thr-Phe-Thr-Val-Thr-Lys-Tyr-Trp-Phe-Tyr-Arg-OH (H-RQIKIWFQNRRMKWKKDGIWKASFTTFTVTKYWFYR-OH) [CSD],"persistence of antinociceptive tolerance blockade after the last i.t. treatment (day 5), tail flick",rats [4],2 days
same,"reversal of spinal morphine antiallodynic tolerance induced by chronic systemic morphine, single agent","[1]; FIGS. 6A, 6B",essentially fully restored i.t. morphine antiallodynic action
same,"reversal of tolerance and effect of reapplication of i.t. CSD, male rat","[1]; i.t. 6 μg CSD on day 9, reapplication on day 12, morphine pellets, FIG. 7 right panel",lasted through day 10; also recorded: again restored morphine antiallodynia
same,"prevention of antiallodynic tolerance to chronic systemic morphine, male rats",[1]; FIG. 4C,works identical in males as in females; also recorded: fully manifest
same,"prevention of antiallodynic tolerance to chronic systemic morphine, female rats",[1]; FIG. 4A,increase to cutoff in von Frey thresholds; also recorded: fully manifest
same,unmasking of antiallodynia of on boarded morphine pellet in systemic morphine tolerant animals,"[1]; i.t. CSD 0.33 μg, virtually no pretreatment with i.t. morphine",unmasked robust morphine (from on boarded morphine pellet) antiallodynia
same,"prevention of tolerance and effect of reapplication of i.t. CSD, female rats","[1]; i.t. CSD 6 μg before morphine pelleting, last on day 5, re-applied on day 11, FIG. 7 left panel",prevented morphine tolerance development; also recorded: morphine antiallodynia was fully manifest
same,reversal of tolerance at lower dose of CSD,"[1]; i.t. CSD 3, 1, or 0.33 μg, chronic systemic morphine, data not shown",Full reversal of tolerance development
same,"persistence of tolerance blockade after the last i.t. treatment (day 5), female rats","[1]; i.t. CSD on days 1, 3, 5 with s.c. morphine pellets, FIG. 4A",3 days
same,"persistence of tolerance blockade after the last i.t. treatment (day 5), male rats","[1]; i.t. CSD on days 1, 3, 5 with s.c. morphine pellets, FIG. 4C",3 days
same,reversal of spinal morphine antiallodynic tolerance by the single agent,[2],fully restored i.t morphine antiallodynia; also recorded: tolerance reversal was complete
same,duration of reversal of morphine tolerance by the single agent,[2]; chronic i.t. morphine,lasted for multiple days
H-Arg-Gln-Ile-Lys-Ile-Trp-Phe-Gln-Asn-Arg-Arg-Met-Lys-Trp-Lys-Lys-Trp-Gly-Ille-Asp-Lys-Ala-Ser-Phe-Thr-Thr-Phe-Thr-Val-Thr-Lys-Tyr-Trp-Phe-Arg-Tyr-OH (H-RQIKIWFQNRRMKWKKWGIDKASFTTFTVTKYWFRY-OH) [S-CSD],"reversal of spinal morphine antiallodynic tolerance induced by chronic systemic morphine, single agent","[1]; FIGS. 6A, 6B",failed to alter antiallodynic action of i.t. morphine; also recorded: had no effect
same,"prevention of antiallodynic tolerance to chronic systemic morphine, male rats",[1]; FIG. 4C,failed to alter morphine tolerance development
same,"prevention of antiallodynic tolerance to chronic systemic morphine, female rats",[1]; FIG. 4A,remained minimal; also recorded: failed to alter morphine tolerance development
